According to patent US11266626B2, “Reduction of ER-MAM-localized APP-C99 and methods of treating alzheimer's disease” (THE TRUSTEES OF COLUMBIA UNIVERSITY IN THE CITY OF NEW YORK, priority 2015, dated 2022):
“Also recorded” adds a separate entry of the source.

Key:
Type in all cases: cell-based, mouse
WT and PS-DKO cells = experiment: Mitochondrial content and biogenesis (VDAC, TOM20 western blot; PGC-1α qRT-PCR)
Experimental: Total RNA was extracted from MEFs using TRIzol® Reagent (Invitrogen 15596-018) according to the manufacture's instructions, and was quantified by NanoDrop2000 (Thermo Scientific). […] of total RNA was used to obtain cDNA by RT-PCR using a High Capacity cDNA Reverse Transcription Kit (Applied Biosystems; PN 4368813, 4374966). Real-Time PCR was performed in triplicate in a StepOnePlus™ Real-Time PCR System (Applied Biosystems; 4376600). The expression of each gene under study was analyzed using specific predesigned TaqMan Probes (PGC-1α, ppargc1 Mm01208835_m1; aSMase, smpd1 Mm00488319_g1; nSMase, smpd3 Mm00491359_m1). The expression of each gene under study was analyzed using specific predesigned TaqMan Probes and normalizing against Gapdh expression (Applied Biosystems, 4352339E) as an internal standard.
Total RNA was extracted from MEFs using TRIzol® Reagent (Invitrogen 15596-018) according to the manufacture's instructions, and was quantified by NanoDrop2000 (Thermo Scientific). […] The expression of each gene under study was analyzed using specific predesigned TaqMan Probes (PGC-1α, ppargcl Mm01208835_ml; aSMase, smpd1 Mm00488319_g1; nSMase, smpd3 Mm00491359_ml). The forward and reverse primers for COXI quantification were, respectively, ([…] (SEQ ID NO: 5); […] (SEQ ID NO: 6)). […]

[1] = test system: WT MEFs and presenilin-mutant (PS-DKO) cells; experiment: Filipin staining of free cholesterol; details: WT MEFs treated with DAPT, then BACE1 inhibitor
Experimental: Cells were washed in PBS and fixed in 3% paraformaldehyde at room temperature for 1 h. After washing in PBS three times, samples were incubated in 1.5 mg/ml glycine in 1×PBS to quench the paraformaldehyde and then incubated in 0.05 mg/ml of filipin in PBS/10% FBS for 2 h at room temperature. Free cholesterol signal was visualized in by microscopy and quantified by ImageJ.

PS-DKO cells = experiment: Seahorse analysis of mitochondrial respiration (OCR); details: BI 100 nM, myriocin 5 μM, TAPI-1 5 μM, 12-16 h, Aβ40:Aβ42 10:1, 6 ng/ml
Experimental: Respirometry of cultured cells was performed using the XF24e Extracellular Flux Analyzer (Seahorse Bioscience). Oxygen consumption was measured in basal conditions (Seahorse media with 25 mM glucose and 2 mM pyruvate) and after the sequential addition of 1 μM oligomycin (Complex V inhibitor), 0.75 μM FCCP (uncoupler) and 1 μM rotenone/1 μM antimycin A (Complex I and Complex III inhibitors respectively).
Respirometry of cultured cells was performed using the XF24e Extracellular Flux Analyzer (Seahorse Bioscience). Oxygen consumption was measured in basal conditions (Seahorse media with 25 mM glucose and 2 mM pyruvate) and after the sequential addition of 1 μM oligomycin (complex V inhibitor), 0.75 μM FCCP (uncoupler), and 1 μM rotenone/1 μM antimycin A (complex I and complex III inhibitors, respectively). All results were averages of five or more biological replicates. Every biological replicate consisted of three technical replicates. For every technical replicate, we plated equal number of cells (25,000 cell/well when MEFs were used, and 50,000 cells/well when human primary fibroblasts were analyzed). The number of cells was also counted after every respirometry assay to correct for cell death. All oxygen consumption (OCR) data were normalized by the number of viable cells or by protein quantity when isolated mitochondria were used.

[2] = test system: mitochondrial respiratory supercomplexes; experiment: Supercomplex analysis (blue-native gels, in-gel activity and western blot)
Experimental: Analysis and quantification of mitochondrial respiratory complexes by western blot and enzymatic in-gel activity were carried out as previously reported (Acin-Perez et al., 2008)
Analysis and quantification of mitochondrial respiratory complexes by Western blot and enzymatic in-gel activity were carried out as described (Acin-Perez et al, 2008).

Structure (SMILES)	mitochondrial content / biogenesis (VDAC, TOM20, PGC-1α mRNA) (WT and PS-DKO cells)	distribution of free cholesterol (filipin staining punctae) [1]	mitochondrial respiration (initial oxygen consumption rate, OCR) (PS-DKO cells)	activity of supercomplexes I+III+IV, I+III and III+IV (in-gel complex I and IV activity) ([2]; mitochondria from PS-DKO cells incubated with BI or myriocin)	assembly of respiratory supercomplexes (blue-native PAGE western blot) ([2]; mitochondria from PS-DKO cells, anti-complex I and III antibodies)	activity of supercomplexes I+III+IV, I+III and III+IV ([2]; mitochondria from DAPT-treated WT cells)
C[C@@H](NC(=O)c1cc(C(=O)N[C@@H](Cc2ccccc2)[C@H](O)CNC2CC2)cc(N(C)S(C)(=O)=O)c1)c1ccccc1 [BI, β-secretase inhibitor IV]	without changes in mitochondria; also recorded: do not affect mitochondrial biogenesis	reverse it	reversed the defect in mitochondrial respiration; also recorded: rescued the respiration defects	rescued	increases the assembly of supercomplexes I+III and I+III+IV	–
C[C@H](NC(=O)Cc1cc(F)cc(F)c1)C(=O)N[C@H](C(=O)OC(C)(C)C)c1ccccc1 [DAPT]	do not affect mitochondrial biogenesis	this phenotype was recapitulated	–	–	–	decrease in the activity of supercomplexes
